Measured values as given in patent US20240398781A1, “SPIROCYCLIC CYCLIC MODULATORS OF CHOLESTEROL BIOSYNTHESIS AND THEIR USE FOR PROMOTING REMYELINATION” (GENENTECH, INC., priority 2021, published 2024).

Key:
[1] = biological target: human emopamil binding protein and human 7-dehydrocholesterol reductase co-expressing cells (hEBP-DHCR7 membrane) (Homo sapiens (Human), UniProt Q15125); test: Radioligand filter binding assay on hEBP-DHCR7 membrane; settings: [3H]-(S)-6-(2-Methyl-3-(6-(trifluoromethyl)pyridin-3-yl)propyl)-2-thia-6-azaspiro[3.4]octane 2,2-dioxide radioligand, HEK293 membrane co-expressing hEBP and hDHCR7
Sequence of human emopamil binding protein and human 7-dehydrocholesterol reductase co-expressing cells (hEBP-DHCR7 membrane) (Q15125 whole entry): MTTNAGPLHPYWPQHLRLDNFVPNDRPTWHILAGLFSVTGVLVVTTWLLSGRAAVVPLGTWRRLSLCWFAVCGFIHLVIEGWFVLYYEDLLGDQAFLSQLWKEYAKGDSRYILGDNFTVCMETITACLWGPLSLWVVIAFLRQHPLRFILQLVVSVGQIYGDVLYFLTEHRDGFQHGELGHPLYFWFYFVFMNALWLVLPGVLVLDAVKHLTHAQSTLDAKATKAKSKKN
Outline: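 HEK293 cells transiently co-expressing human EBP and DHCR7 supplied whole-cell membranes (10 μg/well), incubated 3 h at 22 °C with [3H]-labelled spiro-octane dioxide ligand (added at 25 nM) and compound (0.06-5000 nM final, 8 doses, n=2). Bound ligand was collected on PEI-treated GF/B filters and counted by scintillation. IC50 was Hill-fitted from % inhibition and reported as Ki.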

[2] = test system: EBP (zymostenol accumulation in EpiSC-derived OPCs); test: GC/MS-based sterol profiling, zymostenol accumulation in OPCs; format: cell-based, mouse; settings: Mus musculus, 24 h, EpiSC-derived OPCs, 24 hr treatment, 8 doses from 0.15 nM to 333 nM; read-out: Zymostenol GCMS EC50
Outline: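 EpiSC-derived OPCs (100,000/well) were treated 24 h in N2B27 without growth factors. Sterols were TMS-derivatized and analysed by GC/MS full-scan EI, quantified against cholesterol-d7. Zymostenol was normalized to the level after 24 h with 100 nM positive control reference.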

EpiSC-derived OPCs = test: In vitro phenotypic screening of OPCs (MBP staining, high-content imaging); format: cell-based, mouse; settings: Mus musculus, 72 h, percentage of MBP+ oligodendrocytes, 3 days, 0.5 nM to 1000 nM; read-out: OPC EC50
Outline: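 Readout: high-content imaging of MBP immunostaining around DAPI nuclei, giving percent oligodendrocytes, with EC50 from a Levenberg-Marquardt Hill fit. Epiblast stem cell-derived OPCs were plated on laminin at 150,000/cm^2 in growth-factor-free N2B27. They were exposed 3 days to an 8-point series, 0.5-1000 nM final, in two or more independent platings.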

Structure (SMILES) | Ki [1] | EC50 [2] | EC50 (EpiSC-derived OPCs)
O=S1(=O)CC2(CCN(C3CCN(c4ncc(C(F)(F)F)cc4C4CC4)CC3)C2)C1 [Compound 44, 6-(1-(3-Cyclopropyl-5-(trifluoromethyl)pyridin-2-yl)piperidin-4-yl)-2-thia-6-azaspiro[3.4]octane 2,2-dioxide] | 9 nM | 4 nM | 14 nM
O=S1(=O)CC2(CCN(C3CCN(c4ncc(F)cc4C(F)(F)F)CC3)C2)C1 [Compound 45, 6-(1-(5-Fluoro-3-(trifluoromethyl)pyridin-2-yl)piperidin-4-yl)-2-thia-6-azaspiro[3.4]octane 2,2-dioxide] | 17 nM | 13 nM | 49 nM
O=S1(=O)CC2(CCN([C@H]3CC[C@H](c4ncc(C(F)(F)F)cc4Cl)CC3)C2)C1 [Compound 48A, 6-((1r,4r)-4-(3-chloro-5-(trifluoromethyl)pyridin-2-yl)cyclohexyl)-2-thia-6-azaspiro[3.4]octane 2,2-dioxide] | 31 nM | 3.7 nM | 4 nM
Cc1nc(C(F)(F)F)ccc1[C@H]1CC[C@H](N2CCC3(C2)CS(=O)(=O)C3)CC1 [Compound 51A, 6-((1r,4r)-4-(2-Methyl-6-(trifluoromethyl)pyridin-3-yl)cyclohexyl)-2-thia-6-azaspiro[3.4]octane 2,2-dioxide] | 26 nM | 8.3 nM | 18 nM
O=S1(=O)CC2(CCN(C3CCN(c4ncc(C(F)(F)F)cc4F)CC3)CC2)C1 [Compound 52, 7-(1-(3-Fluoro-5-(trifluoromethyl)pyridin-2-yl)piperidin-4-yl)-2-thia-7-azaspiro[3.5]nonane 2,2-dioxide] | 18 nM | 4.8 nM | 7.7 nM
O=S1(=O)CC2(CCN([C@H]3CC[C@H](c4ncc(C(F)(F)F)cc4F)CC3)C2)C1 [Compound 59, 6-((1r,4r)-4-(3-Fluoro-5-(trifluoromethyl)pyridin-2-yl)cyclohexyl)-2-thia-6-azaspiro[3.4]octane 2,2-dioxide] | 72 nM | 13 nM | 82 nM
O=S1(=O)CC2(CCN([C@H]3CC[C@H](c4ccnc(C(F)(F)F)c4)CC3)C2)C1 [Compound 60A, 6-((1r,4r)-4-(2-(trifluoromethyl)pyridin-4-yl)cyclohexyl)-2-thia-6-azaspiro[3.4]octane 2,2-dioxide] | 133 nM | 10 nM | 21 nM
O=S1(=O)CC2(CCN([C@H]3CC[C@H](c4cccc(C(F)(F)F)n4)CC3)C2)C1 [Compound 62B, 6-((1r,4r)-4-(6-(trifluoromethyl)pyridin-2-yl)cyclohexyl)-2-thia-6-azaspiro[3.4]octane 2,2-dioxide] | 37 nM | 6.4 nM | 13 nM
CC(C)(C)n1nc(C2CC2)nc1[C@@H]1CC[C@H](N2CCC3(C2)CS(=O)(=O)C3)C1 [Compound 74A, 6-((1S,3R)-3-(1-(tert-butyl)-3-cyclopropyl-1H-1,2,4-triazol-5-yl)cyclopentyl)-2-thia-6-azaspiro[3.4]octane 2,2-dioxide] | 154 nM | 31 nM | 230 nM
O=S1(=O)CC2(CCN([C@H]3CC[C@H](c4ccc(C(F)(F)F)nc4C4CC4)CC3)C2)C1 [Compound 75, 6-((1r,4r)-4-(2-Cyclopropyl-6-(trifluoromethyl)pyridin-3-yl)cyclohexyl)-2-thia-6-azaspiro[3.4]octane 2,2-dioxide] | 11 nM | 3.2 nM | 5 nM
O=S1(=O)CC2(CCCN([C@H]3CC[C@H](c4ccc(C(F)(F)F)nc4)CC3)C2)C1 [Compound 79, 6-((1r,4r)-4-(6-(Trifluoromethyl)pyridin-3-yl)cyclohexyl)-2-thia-6-azaspiro[3.5]nonane 2,2-dioxide] | 22 nM | 9.7 nM | 36 nM
O=S1(=O)CC2(CCN([C@H]3CC[C@@H](c4ncc(C(F)(F)F)cc4F)CC3)CC2)C1 [Compound 80B, 7-((1s,4s)-4-(3-fluoro-5-(trifluoromethyl)pyridin-2-yl)cyclohexyl)-2-thia-7-azaspiro[3.5]nonane 2,2-dioxide] | 28 nM | 8 nM | 38 nM
CC(C)(C)n1nc(C(F)(F)F)cc1[C@H]1CC[C@@H](N2CCC3(CC2)CS(=O)(=O)C3)CC1 [Compound 85B, 7-((1s,4s)-4-(1-(tert-butyl)-3-(trifluoromethyl)-1H-pyrazol-5-yl)cyclohexyl)-2-thia-7-azaspiro[3.5]nonane 2,2-dioxide] | 300 nM | 17 nM | 48 nM

Other lines, results leading:

Ki [1] | EC50 [2] | EC50 (EpiSC-derived OPCs) | Structure (SMILES)
15 nM | 3.7 nM | 11 nM | CCc1nc(C(F)(F)F)ccc1[C@H]1CC[C@H](N2CCC3(C2)CS(=O)(=O)C3)CC1 [Compound 64A, 6-((1r,4r)-4-(2-ethyl-6-(trifluoromethyl)pyridin-3-yl)cyclohexyl)-2-thia-6-azaspiro[3.4]octane 2,2-dioxide]
14 nM | 4.1 nM | 8.9 nM | CC(C)c1nc(C(F)(F)F)ccc1[C@H]1CC[C@H](N2CCC3(C2)CS(=O)(=O)C3)CC1 [Compound 65A, 6-((1r,4r)-4-(2-isopropyl-6-(trifluoromethyl)pyridin-3-yl)cyclohexyl)-2-thia-6-azaspiro[3.4]octane 2,2-dioxide]
6.5 nM | 4 nM | 18 nM | O=S1(=O)CC2(CCN([C@H]3CC[C@H](c4ccc(F)c(F)c4)CC3)C2)C1 [Compound 70A, 6-((1r,4r)-4-(3,4-difluorophenyl)cyclohexyl)-2-thia-6-azaspiro[3.4]octane 2,2-dioxide]
21 nM | 33 nM | 110 nM | CC(C)(C)n1nc(C(F)(F)F)cc1[C@H]1CC[C@H](N2CCC3(C2)CS(=O)(=O)C3)CC1 [Compound 73, 6-((1r,4r)-4-(1-(tert-Butyl)-3-(trifluoromethyl)-1H-pyrazol-5-yl)cyclohexyl)-2-thia-6-azaspiro[3.4]octane 2,2-dioxide]
494 nM | 17 nM | 76 nM | CC(C)(C)n1nc(C2CC2)nc1[C@H]1CC[C@@H](N2CCC3(C2)CS(=O)(=O)C3)C1 [Compound 74B, 6-((1R,3S)-3-(1-(tert-butyl)-3-cyclopropyl-1H-1,2,4-triazol-5-yl)cyclopentyl)-2-thia-6-azaspiro[3.4]octane 2,2-dioxide]
33 nM | 5.7 nM | 13 nM | O=S1(=O)CC2(CCN([C@H]3CC[C@H](c4ccc(F)c(F)c4)CC3)CC2)C1 [Compound 77A, 7-((1r,4r)-4-(3,4-Difluorophenyl)cyclohexyl)-2-thia-7-azaspiro[3.5]nonane 2,2-dioxide]
8 nM | 5 nM | 15 nM | O=S1(=O)CC2(CCN([C@H]3CC[C@@H](c4ccc(F)c(F)c4)CC3)CC2)C1 [Compound 77B, 7-((1s,4s)-4-(3,4-difluorophenyl)cyclohexyl)-2-thia-7-azaspiro[3.5]nonane 2,2-dioxide]
120 nM | 34 nM | 280 nM | O=S1(=O)CC2(CCN([C@H]3CC[C@H](c4cc(C(F)(F)F)ncn4)CC3)C2)C1 [Compound 83, 6-((1r,4r)-4-(6-(Trifluoromethyl)pyrimidin-4-yl)cyclohexyl)-2-thia-6-azaspiro[3.4]octane 2,2-dioxide]
12 nM | 8.8 nM | 33 nM | O=S1(=O)CC2(CCN([C@H]3CC[C@H](c4cc(C(F)(F)F)ncc4Cl)CC3)C2)C1 [Compound 87, 6-((1r,4r)-4-(5-Chloro-2-(trifluoromethyl)pyridin-4-yl)cyclohexyl)-2-thia-6-azaspiro[3.4]octane 2,2-dioxide]
73 nM | 16 nM | 110 nM | O=S1(=O)CC2(CCN([C@H]3CC[C@H](c4ccnc(C(F)(F)F)n4)CC3)C2)C1 [Compound 88, 6-((1r,4r)-4-(2-(Trifluoromethyl)pyrimidin-4-yl)cyclohexyl)-2-thia-6-azaspiro[3.4]octane 2,2-dioxide]
710 nM | 170 nM | 520 nM | O=S1(=O)CCC2(CCN([C@H]3CC[C@H](c4ccc(C(F)(F)F)nc4)CC3)C2)CC1 [Compound 95A, 2-((1r,4r)-4-(6-(Trifluoromethyl)pyridin-3-yl)cyclohexyl)-8-thia-2-azaspiro[4.5]decane 8,8-dioxide]
170 nM | 22 nM | 43 nM | O=S1(=O)CCC2(CCN([C@H]3CC[C@@H](c4ccc(C(F)(F)F)nc4)CC3)C2)CC1 [Compound 95B, 2-((1s,4s)-4-(6-(trifluoromethyl)pyridin-3-yl)cyclohexyl)-8-thia-2-azaspiro[4.5]decane 8,8-dioxide]
